From article PMC10893357 (Viruses, 2024)

Experiments:
Format in all cases: cell-based
[1] = tested on: SARS-CoV-2 Wuhan, lineage B.1.1 hCoV-19/Russia/Omsk202118_1707/2020; test: Antiviral CPE reduction assay in Vero E6 cells, Wuhan; settings: Severe acute respiratory syndrome coronavirus 2, Vero C1008, 96 h
[2] = tested on: SARS-CoV-2 Delta, lineage B.1.617.2 hCoV-19/Russia/PSK-2804/2021; test: Antiviral CPE reduction assay in Vero E6 cells, Delta; settings: Severe acute respiratory syndrome coronavirus 2, Vero C1008, 96 h
[3] = tested on: SARS-CoV-2 Omicron, BA.1 hCoV-19/Russia/Moscow171619-031221/2021; test: Antiviral CPE reduction assay in Vero E6 cells, Omicron BA.1; settings: Severe acute respiratory syndrome coronavirus 2, Vero C1008, 96 h
[4] = tested on: SARS-CoV-2 Omicron, BA 5.2 hCov-19/Russia/Moscow-49415/2022; test: Antiviral CPE reduction assay in Vero E6 cells, Omicron BA.5.2; settings: Severe acute respiratory syndrome coronavirus 2, Vero C1008, 96 h
[5] = tested on: SARS-CoV-2 Omicron, XBB 1.5 hCoV-19/Russia/SAK-SRC-8527/2023; test: Antiviral CPE reduction assay in Vero E6 cells, Omicron XBB.1.5; settings: Severe acute respiratory syndrome coronavirus 2, Vero C1008, 96 h
[6] = tested on: SARS-CoV-2 Omicron lineage BQ.1.1 hCoV-19/Russia/TOM-SRC-8663/2023; test: Antiviral CPE reduction assay in Vero E6 cells, Omicron BQ.1.1; settings: Severe acute respiratory syndrome coronavirus 2, Vero C1008, 96 h
[7] = Cytotoxicity (MTT) in Vero E6 cells; settings: African green monkey

| Structure (SMILES) | EC50 [1] [µM] | EC50 [2] [µM] | EC50 [3] [µM] | EC50 [4] [µM] | EC50 [5] [µM] | EC50 [6] [µM] | CC50 at 4 days [7] [µM] |
| --- | --- | --- | --- | --- | --- | --- | --- |
| CC(=O)C1=C(O)C=C2Oc3c(-c4csc(N/N=C/c5ccc(Br)s5)n4)c(O)c(C)c(O)c3[C@@]2(C)C1=O [(+)-3e] | 25.3 ± 2.2 | 41.5 ± 3.1 | 20.7 ± 1.6 | 20 ± 1.6 | 22.4 ± 2 | 32.2 ± 2.6 | 350 ± 21.2 |
| CCC(CC)COC(=O)[C@H](C)N[P@](=O)(OC[C@H]1O[C@@](C#N)(c2ccc3c(N)ncnn23)[C@H](O)[C@@H]1O)Oc1ccccc1 [Remdesivir, reference compound] | 3.8 ± 0.42 | 2.1 ± 0.16 | 2 ± 0.13 | 4.45 ± 1 | 2.65 ± 0.6 | 3.13 ± 0.9 | 711 ± 21.2 |
